Experimental data reported in ChEMBL document CHEMBL1134146, “Development of specific CXCR4 inhibitors possessing high selectivity indexes as well as complete stability in serum based on an anti-HIV peptide T140” (Bioorg Med Chem Lett, 2001).
pEC50: −log10 of the molar value.

Experiments:
[1] = Selectivity index determined for CC50 (test I) to EC50 x 10e3; format: functional
[2] = Selectivity index determined for CC50 (test II) to EC50 x 10e3; format: functional
[3] = Selectivity index determined for CC50 (test I) / EC50 x 10e3; format: functional
[4] = Selectivity index determined for CC50 (test II) / EC50 x 10e3; format: functional
[5] = tested on: Human immunodeficiency virus 1; assay: Effective concentration for 50% protection of HIV-induced cytopathogenicity in MT-4 cells on the MTT assay (ZIDOVUDINE control); format: functional, organism-based; details: Human immunodeficiency virus 1, MT4
MT4 [6] = assay: Cytotoxic concentration of compound required to reduce the viability of mock infected MT-4 cells on the MTT assay in test I; format: functional; details: Homo sapiens
PBMC (Homo sapiens) = assay: Cytotoxic concentration of compound determined by the […] exclusion staining method in PBMC by test II
MT4 [7] = assay: Cytotoxic concentration of compound required to reduce the viability of mock infected MT-4 cells on the MTT assay by testI; format: functional; details: Homo sapiens

Structure (SMILES)	SI [1]	SI [2]	also measured
NCCCC[C@@H]1NC(=O)[C@@H](CCCCN)NC(=O)[C@H](CCCNC(N)=O)NC(=O)[C@@H](Cc2ccc(O)cc2)NC(=O)[C@H](NC(=O)[C@@H](NC(=O)[C@H](CCCN=C(N)N)NC(=O)[C@@H](N)CCCN=C(N)N)c2ccc3ccccc3c2)CSSC[C@H](C(=O)N[C@@H](CCCN=C(N)N)C(=O)O)NC(=O)[C@H](CCCNC(N)=O)NC(=O)[C@H](CCCN=C(N)N)NC(=O)[C@H](Cc2ccc(O)cc2)NC(=O)[C@H]2CCCN2C1=O	> 29	180	–
NCCCC[C@@H]1NC(=O)[C@@H](CCCCN)NC(=O)[C@H](CCCNC(N)=O)NC(=O)[C@@H](Cc2ccc(O)cc2)NC(=O)[C@H](NC(=O)[C@@H](NC(=O)[C@H](CCCN=C(N)N)NC(=O)[C@@H](N)CCCN=C(N)N)c2ccc3ccccc3c2)CSSC[C@H](C(=O)N[C@@H](CCCN=C(N)N)C(N)=O)NC(=O)[C@H](CCCNC(N)=O)NC(=O)[C@H](CCCN=C(N)N)NC(=O)[C@H](Cc2ccc(O)cc2)NC(=O)[C@H]2CCCN2C1=O	> 170	680	–
NCCCC[C@H]1NC(=O)[C@H](CCCN=C(N)N)NC(=O)[C@@H](Cc2ccc(O)cc2)NC(=O)[C@H](NC(=O)[C@@H](NC(=O)[C@H](CCCN=C(N)N)NC(=O)[C@@H](N)CCCNC(N)=O)c2ccc3ccccc3c2)CSSC[C@H](C(=O)N[C@@H](CCCN=C(N)N)C(=O)O)NC(=O)[C@H](CCCNC(N)=O)NC(=O)[C@H](CCCN=C(N)N)NC(=O)[C@H](Cc2ccc(O)cc2)NC(=O)[C@H]2CCCN2C(=O)[C@H](CCCNC(N)=O)NC1=O	> 2.8	> 22	–
NCCCC[C@@H]1NC(=O)[C@@H](CCCCN)NC(=O)[C@H](CCCN=C(N)N)NC(=O)[C@@H](Cc2ccc(O)cc2)NC(=O)[C@H](NC(=O)[C@@H](NC(=O)[C@H](CCCN=C(N)N)NC(=O)[C@@H](N)CCCN=C(N)N)c2ccc3ccccc3c2)CSSC[C@H](C(=O)N[C@@H](CCCN=C(N)N)C(=O)O)NC(=O)[C@H](CCCNC(N)=O)NC(=O)[C@H](CCCN=C(N)N)NC(=O)[C@H](Cc2ccc(O)cc2)NC(=O)[C@H]2CCCN2C1=O	–	–	SI [3]: > 0.3; SI [4]: 18
Cc1cn([C@H]2C[C@H](N=[N+]=[N-])[C@@H](CO)O2)c(=O)[nH]c1=O [ZIDOVUDINE]	1.5	–	pEC50 [5]: 8.10; CC50 (MT4 [6]): 12 µM
NCCCC[C@H]1NC(=O)[C@H](CCCNC(N)=O)NC(=O)[C@@H](Cc2ccc(O)cc2)NC(=O)[C@H](NC(=O)[C@@H](NC(=O)[C@H](CCCN=C(N)N)NC(=O)[C@@H](N)CCCN=C(N)N)c2ccc3ccccc3c2)CSSC[C@H](C(=O)N[C@@H](CCCN=C(N)N)C(=O)O)NC(=O)[C@H](CCCNC(N)=O)NC(=O)[C@H](CCCN=C(N)N)NC(=O)[C@H](Cc2ccc(O)cc2)NC(=O)[C@H]2CCCN2C(=O)[C@H](CCCNC(N)=O)NC1=O	> 200	> 1600	–
NCCCC[C@@H]1NC(=O)[C@H](CCCN=C(N)N)NC(=O)[C@H](Cc2ccc(O)cc2)NC(=O)[C@@H](NC(=O)[C@@H](NC(=O)[C@H](CCCN=C(N)N)NC(=O)[C@@H](N)CCCN=C(N)N)c2ccc3ccccc3c2)CSSC[C@@H](C(=O)N[C@@H](CCCN=C(N)N)C(=O)O)NC(=O)[C@H](CCCNC(N)=O)NC(=O)[C@H](CCCN=C(N)N)NC(=O)[C@H](Cc2ccc(O)cc2)NC(=O)[C@@H]2CCCN2C(=O)[C@@H](CCCCN)NC1=O	–	–	CC50 (PBMC (Homo sapiens)): 59 µM; CC50 (MT4 [7]): > 1 µM
NCCCC[C@@H]1NC(=O)[C@@H](CCCCN)NC(=O)[C@H](CCCNC(N)=O)NC(=O)[C@@H](Cc2ccc(O)cc2)NC(=O)[C@H](NC(=O)[C@@H](NC(=O)[C@H](CCCN=C(N)N)NC(=O)[C@@H](N)CCCNC(N)=O)c2ccc3ccccc3c2)CSSC[C@H](C(=O)N[C@@H](CCCN=C(N)N)C(=O)O)NC(=O)[C@H](CCCNC(N)=O)NC(=O)[C@H](CCCN=C(N)N)NC(=O)[C@H](Cc2ccc(O)cc2)NC(=O)[C@H]2CCCN2C1=O	> 2.7	22	–
NCCCC[C@@H]1NC(=O)[C@@H](CCCCN)NC(=O)[C@H](CCCNC(N)=O)NC(=O)[C@@H](Cc2ccc(O)cc2)NC(=O)[C@H](NC(=O)[C@@H](NC(=O)[C@H](CCCN=C(N)N)NC(=O)[C@@H](N)CCCNC(N)=O)c2ccc3ccccc3c2)CSSC[C@H](C(=O)N[C@@H](CCCN=C(N)N)C(N)=O)NC(=O)[C@H](CCCNC(N)=O)NC(=O)[C@H](CCCN=C(N)N)NC(=O)[C@H](Cc2ccc(O)cc2)NC(=O)[C@H]2CCCN2C1=O	> 15	53	–
NCCCC[C@H]1NC(=O)[C@H](CCCNC(N)=O)NC(=O)[C@@H](Cc2ccc(O)cc2)NC(=O)[C@H](NC(=O)[C@@H](NC(=O)[C@H](CCCN=C(N)N)NC(=O)[C@@H](N)CCCN=C(N)N)c2ccc3ccccc3c2)CSSC[C@H](C(=O)N[C@@H](CCCN=C(N)N)C(N)=O)NC(=O)[C@H](CCCNC(N)=O)NC(=O)[C@H](CCCN=C(N)N)NC(=O)[C@H](Cc2ccc(O)cc2)NC(=O)[C@H]2CCCN2C(=O)[C@H](CCCNC(N)=O)NC1=O	> 250	> 2000	–
NCCCC[C@H]1NC(=O)[C@H](CCCN=C(N)N)NC(=O)[C@@H](Cc2ccc(O)cc2)NC(=O)[C@H](NC(=O)[C@@H](NC(=O)[C@H](CCCN=C(N)N)NC(=O)[C@@H](N)CCCN=C(N)N)c2ccc3ccccc3c2)CSSC[C@H](C(=O)N[C@@H](CCCN=C(N)N)C(=O)O)NC(=O)[C@H](CCCNC(N)=O)NC(=O)[C@H](CCCN=C(N)N)NC(=O)[C@H](Cc2ccc(O)cc2)NC(=O)[C@H]2CCCN2C(=O)[C@H](CCCNC(N)=O)NC1=O	> 20	28	–
NCCCC[C@@H]1NC(=O)[C@@H](CCCCN)NC(=O)[C@H](CCCN=C(N)N)NC(=O)[C@@H](Cc2ccc(O)cc2)NC(=O)[C@H](NC(=O)[C@@H](NC(=O)[C@H](CCCN=C(N)N)NC(=O)[C@@H](N)CCCNC(N)=O)c2ccc3ccccc3c2)CSSC[C@H](C(=O)N[C@@H](CCCN=C(N)N)C(=O)O)NC(=O)[C@H](CCCNC(N)=O)NC(=O)[C@H](CCCNC(N)=O)NC(=O)[C@H](Cc2ccc(O)cc2)NC(=O)[C@H]2CCCN2C1=O	> 1.5	> 12	–
NCCCC[C@@H]1NC(=O)[C@@H](CCCCN)NC(=O)[C@H](CCCNC(N)=O)NC(=O)[C@@H](Cc2ccc(O)cc2)NC(=O)[C@H](NC(=O)[C@@H](NC(=O)[C@H](CCCN=C(N)N)NC(=O)[C@@H](N)CCCN=C(N)N)c2ccc3ccccc3c2)CSSC[C@H](C(=O)N[C@@H](CCCN=C(N)N)C(=O)O)NC(=O)[C@H](CCCNC(N)=O)NC(=O)[C@H](CCCNC(N)=O)NC(=O)[C@H](Cc2ccc(O)cc2)NC(=O)[C@H]2CCCN2C1=O	> 11	> 90	–
NCCCC[C@H]1NC(=O)[C@H](CCCN=C(N)N)NC(=O)[C@@H](Cc2ccc(O)cc2)NC(=O)[C@H](NC(=O)[C@@H](NC(=O)[C@H](CCCN=C(N)N)NC(=O)[C@@H](N)CCCN=C(N)N)c2ccc3ccccc3c2)CSSC[C@H](C(=O)N[C@@H](CCCN=C(N)N)C(N)=O)NC(=O)[C@H](CCCNC(N)=O)NC(=O)[C@H](CCCNC(N)=O)NC(=O)[C@H](Cc2ccc(O)cc2)NC(=O)[C@H]2CCCN2C(=O)[C@H](CCCNC(N)=O)NC1=O	> 37	250	–
NCCCC[C@H]1NC(=O)[C@H](CCCN=C(N)N)NC(=O)[C@@H](Cc2ccc(O)cc2)NC(=O)[C@H](NC(=O)[C@@H](NC(=O)[C@H](CCCN=C(N)N)NC(=O)[C@@H](N)CCCN=C(N)N)c2ccc3ccccc3c2)CSSC[C@H](C(=O)N[C@@H](CCCN=C(N)N)C(N)=O)NC(=O)[C@H](CCCNC(N)=O)NC(=O)[C@H](CCCN=C(N)N)NC(=O)[C@H](Cc2ccc(O)cc2)NC(=O)[C@H]2CCCN2C(=O)[C@H](CCCNC(N)=O)NC1=O	> 22	21	–
NCCCC[C@@H]1NC(=O)[C@@H](CCCCN)NC(=O)[C@H](CCCN=C(N)N)NC(=O)[C@@H](Cc2ccc(O)cc2)NC(=O)[C@H](NC(=O)[C@@H](NC(=O)[C@H](CCCN=C(N)N)NC(=O)[C@@H](N)CCCNC(N)=O)c2ccc3ccccc3c2)CSSC[C@H](C(=O)N[C@@H](CCCN=C(N)N)C(N)=O)NC(=O)[C@H](CCCNC(N)=O)NC(=O)[C@H](CCCNC(N)=O)NC(=O)[C@H](Cc2ccc(O)cc2)NC(=O)[C@H]2CCCN2C1=O	> 2.5	12	–
NCCCC[C@@H]1NC(=O)[C@@H](CCCCN)NC(=O)[C@H](CCCNC(N)=O)NC(=O)[C@@H](Cc2ccc(O)cc2)NC(=O)[C@H](NC(=O)[C@@H](NC(=O)[C@H](CCCN=C(N)N)NC(=O)[C@@H](N)CCCN=C(N)N)c2ccc3ccccc3c2)CSSC[C@H](C(=O)N[C@@H](CCCN=C(N)N)C(N)=O)NC(=O)[C@H](CCCNC(N)=O)NC(=O)[C@H](CCCNC(N)=O)NC(=O)[C@H](Cc2ccc(O)cc2)NC(=O)[C@H]2CCCN2C1=O	> 15	> 59	–
NCCCC[C@H]1NC(=O)[C@H](CCCN=C(N)N)NC(=O)[C@@H](Cc2ccc(O)cc2)NC(=O)[C@H](NC(=O)[C@@H](NC(=O)[C@H](CCCN=C(N)N)NC(=O)[C@@H](N)CCCNC(N)=O)c2ccc3ccccc3c2)CSSC[C@H](C(=O)N[C@@H](CCCN=C(N)N)C(N)=O)NC(=O)[C@H](CCCNC(N)=O)NC(=O)[C@H](CCCN=C(N)N)NC(=O)[C@H](Cc2ccc(O)cc2)NC(=O)[C@H]2CCCN2C(=O)[C@H](CCCNC(N)=O)NC1=O	> 83	420	–
